{"source": "ChEMBL document CHEMBL5316298", "about": "“Discovery of Amphiphilic Xanthohumol Derivatives as Membrane-Targeting Antimicrobials against Methicillin-Resistant Staphylococcus aureus” (J Med Chem, 2023)", "key": {"Staphylococcus aureus [1]": {"system": "Staphylococcus aureus", "assay": "Antibacterial activity against methicillin-resistant Staphylococcus aureus 3 infected in KM mouse assessed as reduction in bacterial load at infection site at 10 mg/kg administered into skin infection site measured after 24 hrs relative to control", "type": "functional", "set-up": "scale not given: the % may be the effect or the level left"}, "Cell membrane": {"system": "Cell membrane", "assay": "Induction of membrane depolarization in methicillin-resistant Staphylococcus aureus 3 assessed as fold increase in fluorescence intensity at 8 to 16 ug/ml measured after 20 mins by DiSC35 dye-based fluorescence assay relative to control", "type": "subcellular", "conditions": "dose 8-16 µg/ml"}, "[2]": {"assay": "Toxicity in KM mouse assessed as effect on mean corpuscular volume at 20 mg/kg, sc administered into middle dorsum and measured after 24 hrs by routine blood test", "type": "organism-based", "conditions": "in vivo"}, "Staphylococcus aureus [3]": {"system": "Staphylococcus aureus", "assay": "Antibacterial activity against methicillin-resistant Staphylococcus aureus 3 infected in KM mouse assessed as reduction in bacterial load at infection site by measuring colony forming units at 5 mg/kg administered into skin infection site measured after 24 hrs", "type": "functional"}, "L02": {"system": "L02", "assay": "Cytotoxicity against human L02 cells assessed as reduction in cell viability at 64 ug/ml incubated for 24 hrs by CCK-8 assay", "type": "toxicity, cell-based", "conditions": "l02, 24 h, dose 64 µg/ml"}, "Staphylococcus aureus [4]": {"system": "Staphylococcus aureus", "assay": "Antibacterial activity against methicillin-resistant Staphylococcus aureus 3 infected in KM mouse assessed as reduction in size of abscesses at 5 mg/kg administered into skin infection site measured after 24 hrs", "type": "functional, organism-based"}}, "note": "Active and inactive are the calls of the source. The rule behind the calls is not given here.", "data": [{"smiles": "CCCN(CCC)C(=O)C[N+](C)(C)CCCCOc1ccc(/C=C/C(=O)c2c(OC)cc3c(c2O)C=CC(C)(C)O3)cc1.[Br-]", "values": [{"measurement": "Activity", "setting": "Staphylococcus aureus [1]", "value": 99.998, "unit": "%"}, {"measurement": "fold change (FC)", "setting": "Cell membrane", "value": 6}, {"measurement": "Activity", "setting": "[2]", "value": "Non-Toxic"}, {"measurement": "Activity", "setting": "Staphylococcus aureus [3]", "value": 3, "unit": "log10CFU/g"}, {"measurement": "Activity", "setting": "L02", "value": "Non-Toxic"}, {"measurement": "Activity", "setting": "Staphylococcus aureus [4]", "value": "Active"}]}]}
